In ChEMBL document CHEMBL1136768, “Structure-activity relationships of (S,Z)-2-aminopurine methylenecyclopropane analogues of nucleosides. Variation of purine-6 substituents and activity against herpesviruses and hepatitis B virus” (J Med Chem, 2003):

Columns and labels:
[1] = tested on: Human alphaherpesvirus 1; assay: Concentration inhibiting the replication of HSV-1 in Vero cells determined by plaque reduction assay; assay type: functional, organism-based, herpes simplex virus; settings: Human alphaherpesvirus 1, Vero
[2] = tested on: CCRF-CEM; assay: Cytotoxicity in uninfected CEM cells; assay type: functional; settings: Homo sapiens
[3] = tested on: Human betaherpesvirus 5; assay: Concentration inhibiting the replication of HCMV in HFF cells by plaque reduction assay; settings: Human betaherpesvirus 5, HFF
[4] = tested on: Human gammaherpesvirus 4; assay: Concentration inhibiting the replication of EBV in Daudi cells; assay type: functional, organism-based; settings: human gammaherpesvirus 4, Daudi
[5] = tested on: Human alphaherpesvirus 2; assay: Concentration inhibiting the replication of HSV-2 in Vero cells.; assay type: functional, organism-based; settings: Human alphaherpesvirus 2, Vero
[6] = tested on: Hepatitis B virus; assay: Inhibition of the replication of HBV in 2.2.15 cells, by DNA hybridization assay; assay type: functional, organism-based; settings: HepG2 2.2.15
[7] = tested on: HFF; assay: Cytotoxicity was scored on uninfected HFF cells not affected by virus in the HCMV (AD169 strain) by neutral red uptake; assay type: functional
[8] = tested on: Human alphaherpesvirus 1; assay: Concentration inhibiting the replication of HSV-1 in BSC-1 cells determined by ELISA assay; assay type: functional, organism-based, herpes simplex virus; settings: Human alphaherpesvirus 1, BSC-1
[9] = tested on: MEF; assay: Cytotoxicity in uninfected MEF cells; assay type: functional; settings: Mus musculus
[10] = tested on: Human gammaherpesvirus 4; assay: Concentration inhibiting the replication of EBV in H-1 cells by DNA hybridization assay; assay type: functional, organism-based; settings: human gammaherpesvirus 4, H-1
[11] = tested on: Murid betaherpesvirus 1; assay: Concentration inhibiting the replication of MCMV in MEF cells; assay type: functional, organism-based; settings: Murid betaherpesvirus 1, MEF
[12] = tested on: HFF; assay: Cytotoxicity against proliferating HFF cells; assay type: functional; settings: Homo sapiens
[13] = tested on: Daudi; assay: Cytotoxicity in uninfected Daudi cells; assay type: functional; settings: Homo sapiens
[14] = tested on: Daudi; assay: Concentration inhibiting the replication of EBV in Daudi cells by DNA hybridization assay; assay type: functional, cell-based; settings: Homo sapiens

EC50 [1]	EC50 [3]	EC50 [4]	EC50 [5]	EC50 [6]	EC50 [8]	EC50 [10]	EC50 [11]	EC50 [14]	Compound	CC50 [2]	CC50 [7]	CC50 [9]	CC50 [12]	CC50 [13]
> 100 µM	> 62 µM	> 155 µM	52 µM	> 20 µM	> 50 µM	> 20 µM	–	–	Nc1nc(NCc2ccccc2)c2ncn(/C=C3/C[C@@H]3CO)c2n1	> 50 µM	> 310 µM	25 µM	–	–
7 µM	2.3 µM	> 183 µM	8 µM	11 µM	1.5 µM	1.1 µM	0.29 µM	–	C=CCOc1nc(N)nc2c1ncn2/C=C1/C[C@@H]1CO	26 µM	–	> 366 µM	220 µM	> 183 µM
9 µM	> 69 µM	> 172 µM	10 µM	5.1 µM	1 µM	6.3 µM	1.4 µM	–	CCCSc1nc(N)nc2c1ncn2/C=C1/C[C@@H]1CO	> 100 µM	–	343 µM	283 µM	> 172 µM
> 50 µM	180 µM	> 159 µM	> 50 µM	> 20 µM	15 µM	> 20 µM	–	–	Nc1nc(NC2CCCCC2)c2ncn(/C=C3/C[C@@H]3CO)c2n1	> 100 µM	> 318 µM	–	–	> 159 µM
3 µM	> 66 µM	23.4 µM	4 µM	7.3 µM	7 µM	7.3 µM	1.45 µM	–	CCCCCOc1nc(N)nc2c1ncn2/C=C1/C[C@@H]1CO	87 µM	–	224 µM	41.9 µM	> 165 µM
10 µM	> 80 µM	39.8 µM	14 µM	> 20 µM	7 µM	> 20 µM	1.5 µM	–	CCCCCSc1nc(N)nc2c1ncn2/C=C1/C[C@@H]1CO	26 µM	–	171 µM	215 µM	> 157 µM
> 50 µM	> 80 µM	> 8 µM	> 50 µM	20 µM	> 100 µM	> 20 µM	> 16 µM	–	Nc1nc(S)c2ncn(/C=C3/C[C@@H]3CO)c2n1	29 µM	–	64 µM	–	35.3 µM
> 50 µM	> 60 µM	> 181 µM	> 50 µM	> 20 µM	> 100 µM	> 20 µM	11.9 µM	–	Nc1nc(NCCO)c2ncn(/C=C3/C[C@@H]3CO)c2n1	> 100 µM	–	> 362 µM	–	> 181 µM
18 µM	> 368 µM	> 184 µM	21 µM	20 µM	4 µM	18.5 µM	0.33 µM	–	C=CCNc1nc(N)nc2c1ncn2/C=C1/C[C@@H]1CO	> 100 µM	–	> 368 µM	> 368 µM	> 184 µM
8 µM	8.4 µM	29.2 µM	12 µM	12.6 µM	7 µM	12.6 µM	0.35 µM	–	Nc1nc(OCC2CC2)c2ncn(/C=C3/C[C@@H]3CO)c2n1	41 µM	–	278 µM	112 µM	112 µM
25 µM	10.8 µM	0.56 µM	> 50 µM	> 20 µM	2.5 µM	> 20 µM	1.7 µM	7 µM	Nc1nc(NCC2CC2)c2ncn(/C=C3/C[C@@H]3CO)c2n1	> 100 µM	–	279 µM	–	> 175 µM
15 µM	12 µM	6.2 µM	22 µM	> 10 µM	20 µM	0.66 µM	0.15 µM	0.85 µM	Nc1nc(NC2CC2)c2ncn(/C=C3/C[C@@H]3CO)c2n1	70 µM	–	367 µM	213 µM	176 µM
50 µM	55 µM	2.3 µM	> 50 µM	> 10 µM	45 µM	0.47 µM	0.39 µM	< 0.34 µM	Nc1nc(O)c2ncn(/C=C3/C[C@@H]3CO)c2n1	90 µM	–	> 429 µM	257 µM	> 215 µM
> 38 µM	> 365 µM	36.5 µM	> 50 µM	> 10 µM	15 µM	11 µM	–	–	CC(C)Nc1nc(N)nc2c1ncn2/C=C1/C[C@@H]1CO	> 100 µM	> 365 µM	–	–	168 µM
4 µM	8 µM	> 182 µM	10 µM	4.1 µM	1 µM	1.5 µM	< 0.11 µM	–	CCCOc1nc(N)nc2c1ncn2/C=C1/C[C@@H]1CO	32 µM	–	363 µM	69.4 µM	> 182 µM
23 µM	10 µM	3.8 µM	16 µM	> 10 µM	20 µM	0.44 µM	0.24 µM	1 µM	COc1nc(N)nc2c1ncn2/C=C1/C[C@@H]1CO	98 µM	–	351 µM	15.8 µM	146 µM
20 µM	> 74 µM	> 185 µM	50 µM	> 10 µM	6 µM	~2 µM	0.37 µM	–	C#CCNc1nc(N)nc2c1ncn2/C=C1/C[C@@H]1CO	> 100 µM	–	> 370 µM	306 µM	> 185 µM
